Measurements taken from article PMC9804387, “Substrate Peptidomimetic Inhibitors of P. falciparum Plasmepsin X with Potent Antimalarial Activity” (Chemmedchem, 2022).
Counter-ions that a name gives are not always drawn.

How the values were obtained:
renin = biological target: T1, renin (Homo sapiens, UniProt P00797); assay: Renin FRET protease assay; assay type: biochemical; conditions: mean and SD of 4 replicate FRET experiments, 37 °C; highest concentration tested 11 μM
T1 construct: purchased Proteos R-001
T1 sequence (P00797 67-406): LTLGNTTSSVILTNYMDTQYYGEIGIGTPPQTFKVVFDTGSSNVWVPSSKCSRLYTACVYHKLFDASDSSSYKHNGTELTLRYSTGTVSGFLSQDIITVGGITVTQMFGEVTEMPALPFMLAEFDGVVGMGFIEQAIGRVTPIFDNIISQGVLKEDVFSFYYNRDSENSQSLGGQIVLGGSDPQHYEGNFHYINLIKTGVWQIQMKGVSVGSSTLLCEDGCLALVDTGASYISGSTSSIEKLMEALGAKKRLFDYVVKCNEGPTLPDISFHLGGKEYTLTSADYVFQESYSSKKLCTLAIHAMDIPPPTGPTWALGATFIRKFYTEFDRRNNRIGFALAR

cathepsin D = biological target: T2, cathepsin D (Homo sapiens, UniProt P07339); assay: Cathepsin D FRET protease assay; assay type: biochemical; conditions: mean and SD of 4 replicate FRET experiments, 37 °C; highest concentration tested 11 μM
T2 construct: purchased Athens Research 16-12-030104

recombinant Pf PMX = biological target: T3, recombinant Pf PMX (Plasmodium falciparum, UniProt Q8IAS0); assay: PMX biochemical FRET assay (Rh2N fluorogenic substrate cleavage); conditions: 37 °C
T3 construct: made in house
Procedure: FRET Protease Assays. FRET protease assays were performed as previously described.[19, 20, 27, 28] Briefly, ten‐point 1 : 3‐fold dilution series of the compounds were prepared in 384‐well black low volume assay plates (Greiner) using an Echo555 (Labcyte). 10 mM compound stocks were transferred into assay plates such that the starting concentration was 90 μM (Pv PMV assays), 11.25 μM (renin, cathepsin D and BACE‐1 assays) or 100 nM and 10 μM (Pf PMX and Pf PMIX assays). All wells were backfilled to 200 nL DMSO such that the DMSO concentration remained constant across the assay plates (1 % final). All compound potency assays were conducted in 20 μL total volume. For each assay, 10 μL of recombinant enzymes in respective assay buffers (Table S2) were dispensed into compound containing assay plates using a Multidrop‐Combi dispenser and allowed to incubate for 15 min. Recombinant Pf PMX, Pf PMIX and Pv PMV were expressed as previously described,[23, 27, 28] and recombinant human aspartyl proteases were purchased commercially. 10 μL of the fluorogenic peptide substrates incubated at 37 °C for the duration and conditions noted in Table S2. Samples were excited at 340 nm and fluorescence emission measured at 492 nm using an Envision fluorescence plate reader (Perkin‐Elmer). The 0 % inhibition control contained DMSO alone (1 % final) and the 100 % inhibition control was in the absence of enzyme. […]
(§1) Table S2 . P rotease FRET assay conditions.
(§2) PMX as sa y PMIX PM V assay Renin assay Cathepsin D assay BA CE-1 assay E nzy me prot e as e 0.25 nM pro te a se 6 nM prot e as e q ua nti ty 0.1 nM pro t ea se 1.5 nM pro t ea se 2.5 nM pro t ea se 3 nM (Pro te os #R-001) ( Athe ns Re sea rc h (Sigma #S4195) […]
(§3) 25mM so di um acetate, 100 mM 25 mM M E S, 25 m M 50 mM Tr is, 100 mM 100 mM so di u m 20 mM so dium Buffer acetate, 0.005% sodium chloride and Tris-HCl, 0.01% N aC l, 0. 1% Bri j-35, acetate 0.02% scetate, 0.05% […]
(§4) Sub str at e DABCYL- ( DA BC YL ) - DABCYL- DABCYL-(γ- Ab u) - E[E(EDANS)]KPIL […]

BACE‐1 = biological target: T4, BACE‐1 (Homo sapiens, UniProt P56817); assay: BACE-1 FRET protease assay; assay type: biochemical; conditions: mean and SD of 4 replicate FRET experiments, 37 °C; highest concentration tested 11 μM
T4 construct: purchased Sigma S4195

recombinant Pf PMIX = biological target: T5, recombinant Pf PMIX (Plasmodium falciparum, UniProt Q8ILG2); assay: PMIX FRET protease assay; assay type: biochemical, P. falciparum; conditions: mean and SD of 4 replicate FRET experiments, 37 °C
T5 construct: made in house
Procedure: FRET Protease Assays. FRET protease assays were performed as previously described.[19, 20, 27, 28] Briefly, ten‐point 1 : 3‐fold dilution series of the compounds were prepared in 384‐well black low volume assay plates (Greiner) using an Echo555 (Labcyte). 10 mM compound stocks were transferred into assay plates such that the starting concentration was 90 μM (Pv PMV assays), 11.25 μM (renin, cathepsin D and BACE‐1 assays) or 100 nM and 10 μM (Pf PMX and Pf PMIX assays). All wells were backfilled to 200 nL DMSO such that the DMSO concentration remained constant across the assay plates (1 % final). All compound potency assays were conducted in 20 μL total volume. For each assay, 10 μL of recombinant enzymes in respective assay buffers (Table S2) were dispensed into compound containing assay plates using a Multidrop‐Combi dispenser and allowed to incubate for 15 min. Recombinant Pf PMX, Pf PMIX and Pv PMV were expressed as previously described,[23, 27, 28] and recombinant human aspartyl proteases were purchased commercially. 10 μL of the fluorogenic peptide substrates incubated at 37 °C for the duration and conditions noted in Table S2. Samples were excited at 340 nm and fluorescence emission measured at 492 nm using an Envision fluorescence plate reader (Perkin‐Elmer). The 0 % inhibition control contained DMSO alone (1 % final) and the 100 % inhibition control was in the absence of enzyme. Half‐maximal inhibitory concentration (IC50) values were calculated by GraphPad Prism (8.0.2) software using a nonlinear regression four‐parameter fit analysis using a sigmoidal dose response (variable slope).
as §1, §2, §3, §4

[1] = tested on: P. falciparum 3D7 parasites; assay: Asexual stage of arrest assay (Giemsa smears, SYBR green flow cytometry); assay type: cell-based
Procedure: Asexual stage of arrest phenotyping. Inhibition of PMX prevents parasites from egressing from the host erythrocyte and arrests asexual stage parasites at the late schizont stage. […] In this assay, highly synchronized asexual ring stage parasites were treated with ten times the EC50 of 38 and 49c (2) and the DMSO vehicle control. The parasite stage of arrest was analyzed by microscopy of Giemsa‐stained blood smears, while parasitemia was quantified by flow cytometry at 12, 24, 36 and 48 hours.
Stage Arrestment Assay. As previously described,[42] P. falciparum 3D7 parasites were synchronized using a 5 % D‐sorbitol solution prior to assay set‐up. Ring‐staged parasites were adjusted to a final parasitemia and haematocrit of 1 % and 2 %, respectively. Compounds were added to a final concentration of 10×EC50 which were replenished after 24 h. Plates were incubated at 37°C for 48 h and blood smears and 50 μL aliquots in triplicate were harvested every 12 h. Aliquots for flow cytometry analysis were fixed in 0.25 % glutaraldehyde for 30 min at room temperature before being washed in PBS and stored at 4 °C until completion of the assay. To determine parasitemia, fixed blood pellets were stained with 50 μL 2.5×SYBR Green (Invitrogen) for 30 min before being diluted with 180 μL of PBS. 100 000 cells for each sample were counted using an Attune Flow Cytometer (ThermoFisher Scientific). Blood smears were stained with Giemsa and morphology of parasites were examined using a Zeiss Axio Observer microscope.

[2] = Table 3, mean and SD of 4 replicate FRET experiments
[3] = recombinant PMX, fluorogenic substrate (Rh2N) cleavage, 4 h, mean and SD of 4 replicates (Tables 1, 2)

T3 sequence (Q8IAS0 222-573): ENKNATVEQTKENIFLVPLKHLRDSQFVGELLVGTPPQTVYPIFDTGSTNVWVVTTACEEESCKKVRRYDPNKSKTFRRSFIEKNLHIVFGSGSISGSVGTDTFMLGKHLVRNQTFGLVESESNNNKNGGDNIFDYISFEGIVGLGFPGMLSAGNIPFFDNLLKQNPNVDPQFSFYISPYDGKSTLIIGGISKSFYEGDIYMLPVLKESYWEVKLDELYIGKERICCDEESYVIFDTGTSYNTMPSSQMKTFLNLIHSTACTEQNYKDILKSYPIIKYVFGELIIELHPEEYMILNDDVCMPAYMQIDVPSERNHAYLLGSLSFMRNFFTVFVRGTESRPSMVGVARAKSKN
T5 sequence (Q8ILG2 whole entry): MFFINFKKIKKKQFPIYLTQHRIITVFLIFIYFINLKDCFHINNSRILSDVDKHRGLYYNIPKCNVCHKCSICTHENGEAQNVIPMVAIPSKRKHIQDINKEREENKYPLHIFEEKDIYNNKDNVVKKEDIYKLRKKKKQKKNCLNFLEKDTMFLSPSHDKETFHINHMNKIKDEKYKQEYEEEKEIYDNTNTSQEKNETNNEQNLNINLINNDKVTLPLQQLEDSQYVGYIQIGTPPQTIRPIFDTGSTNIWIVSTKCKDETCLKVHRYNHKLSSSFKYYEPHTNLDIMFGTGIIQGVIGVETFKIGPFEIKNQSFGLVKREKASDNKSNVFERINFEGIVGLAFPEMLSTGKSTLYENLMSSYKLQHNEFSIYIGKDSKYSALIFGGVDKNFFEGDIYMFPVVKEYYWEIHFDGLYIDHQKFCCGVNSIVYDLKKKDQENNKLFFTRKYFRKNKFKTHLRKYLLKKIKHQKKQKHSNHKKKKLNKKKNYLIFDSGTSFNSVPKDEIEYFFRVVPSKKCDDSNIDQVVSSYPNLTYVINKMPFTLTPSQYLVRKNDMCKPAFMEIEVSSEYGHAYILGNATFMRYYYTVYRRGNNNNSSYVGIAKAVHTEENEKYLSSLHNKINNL
T2 sequence (P07339 65-412): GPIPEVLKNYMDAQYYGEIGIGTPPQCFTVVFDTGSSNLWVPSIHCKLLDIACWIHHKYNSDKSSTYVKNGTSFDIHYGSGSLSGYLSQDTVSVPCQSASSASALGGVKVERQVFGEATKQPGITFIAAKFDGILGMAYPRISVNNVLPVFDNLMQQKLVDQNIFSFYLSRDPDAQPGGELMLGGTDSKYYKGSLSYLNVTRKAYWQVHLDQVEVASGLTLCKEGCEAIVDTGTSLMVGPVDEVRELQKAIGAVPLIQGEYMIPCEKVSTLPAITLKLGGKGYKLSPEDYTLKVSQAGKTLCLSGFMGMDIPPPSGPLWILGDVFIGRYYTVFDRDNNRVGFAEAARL
T4 sequence (P56817 46-460 limits assumed): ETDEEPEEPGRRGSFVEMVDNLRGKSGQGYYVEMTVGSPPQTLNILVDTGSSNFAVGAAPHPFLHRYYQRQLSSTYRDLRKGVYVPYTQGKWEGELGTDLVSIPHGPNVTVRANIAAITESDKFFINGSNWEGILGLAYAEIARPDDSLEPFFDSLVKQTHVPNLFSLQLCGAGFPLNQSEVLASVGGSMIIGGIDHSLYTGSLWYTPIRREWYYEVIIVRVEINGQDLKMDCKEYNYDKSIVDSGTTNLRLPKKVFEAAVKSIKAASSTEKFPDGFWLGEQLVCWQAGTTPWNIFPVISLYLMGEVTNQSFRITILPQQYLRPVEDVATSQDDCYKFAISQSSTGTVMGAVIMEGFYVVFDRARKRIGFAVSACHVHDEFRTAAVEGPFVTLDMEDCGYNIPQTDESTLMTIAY

`C[C@@H](NC[C@@H](O)[C@H](Cc1ccccc1)NC(=O)[C@H](CO)NC(=O)OCc1ccccc1)c1ccccc1` [Compd 38, Cbz‐Ser‐Phe‐HEA‐Bn(CH3)⋅TFA] gave an IC50 (renin) of over 11 µM, an IC50 (cathepsin D) of over 11 µM and an IC50 (recombinant Pf PMX; [2]) of 0.06 µM. The IC50 (recombinant Pf PMX; [3]) was 0.06 µM, the IC50 (BACE‐1) was over 11 µM and the IC50 (recombinant Pf PMIX) was 41 µM. The “parasitemia / establishment of infection by flow cytometry” value ([1]; 38 at 10×EC50 (900 nM), SYBR green flow cytometry at 12, 24, 36, 48 h) was “unable to establish infection beyond 36 h” and the “asexual parasite stage of arrest” value ([1]; 38 at 10×EC50 (900 nM), synchronized ring stage parasites, Giemsa smears, up to 48 h) was “arrests asexual parasites at the schizont stage”.
With `C[C@@H](NC[C@@H](O)[C@H](Cc1ccccc1)NC(=O)c1ccc(C(=O)N2CCN(C)CC2)cc1)c1ccccc1` [Compd 2, reference compound] the IC50 (renin) was over 11 µM, the IC50 (cathepsin D) was over 11 µM and the IC50 (recombinant Pf PMX; [2]) was 0.001 µM. For the same compound, the IC50 (recombinant Pf PMX; [3]) was 0.001 µM, the IC50 (BACE‐1) was over 11 µM and the IC50 (recombinant Pf PMIX) was 15.1 µM. For the same compound, the “merozoite egress / stage of arrest” value ([1]; 49c (2) at 10×EC50 (6 nM), Giemsa smears and flow cytometry, up to 48 h) was “inhibition of merozoite egress”.
